{"source": "paper PMC11371739", "about": "“Ginkgolic Acid as a carbapenem synergist against KPC-2 positive Klebsiella pneumoniae” (Frontiers in Microbiology, 2024)", "molecular_target": "T1, KPC-2 (Klebsiella pneumoniae carbapenemase-2) (Klebsiella pneumoniae, UniProt Q9F663)", "T1 construct": "purified KPC-2 expressed in E. coli BL21(DE3) (pET28a-KPC-2)", "T1 sequence (Q9F663 25-293 limits assumed)": "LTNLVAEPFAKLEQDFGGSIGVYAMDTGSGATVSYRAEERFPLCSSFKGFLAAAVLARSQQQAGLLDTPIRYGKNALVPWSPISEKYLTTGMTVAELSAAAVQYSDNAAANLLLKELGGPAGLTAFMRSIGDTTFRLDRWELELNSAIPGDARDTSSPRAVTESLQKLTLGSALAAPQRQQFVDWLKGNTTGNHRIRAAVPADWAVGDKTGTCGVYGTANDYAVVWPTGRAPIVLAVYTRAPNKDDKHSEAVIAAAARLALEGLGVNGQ", "assay": "nitrocefin hydrolysis inhibition assay with purified KPC-2; supported by CD, FTIR and site-directed mutagenesis", "assay_type": "biochemical", "note": "pIC50: −log10 of the molar value.", "data": [{"smiles": "CCCCCCCCCCCCCc1cccc(O)c1C(=O)O", "note": "[GA, Ginkgolic Acid (C13:0)]", "values": [{"measurement": "pIC50", "value": 4.83}]}]}
